Residues, ends and D or L forms follow the SMILES beside them. *: point of attachment. DOTA = O=C(O)CN1CCN(CC(=O)O)CCN(CC(=O)*)CCN(CC(=O)O)CC1; X1 = Cc1ccc(CCCC(=O)NCCOCCOCCOCCOCC(=O)*)cc1; βAla = NCCC(=O)O
Assay: in vivo
Design: species or system mice
Settings: male, SCID, mouse, iv, total radioactivity
Method: The distribution of [^67Ga]Ga/[^111In]In/[^177Lu]Lu-DT14D was investigated in male severe combined immunodeficiency (SCID) mice (49 mice in total, 6 weeks of age on arrival date, 22 ± 4 g, NCSR “Demokritos” Animal House, Athens, Greece) bearing NTS1R-positive AsPC-1 xenografts in their flanks. For xenograft induction, suspensions of freshly harvested AsPC-1 cells (5 × 10^6 cells in 150 µL sterile PBS) were subcutaneously injected into the mice’s flanks. The animals were kept under aseptic conditions and 4 weeks later developed well palpable masses at the inoculation sites (100 ± 50 mg) and biodistribution was conducted. On the day of the experiment, the animals received a bolus (100 μL, in vehicle: saline/EtOH 9/1 v/v) containing the radioligand via the tail vein. The following groups of four animals per time point, per treatment, were included per radioligand (the 4 h block groups comprised 3 animals instead) including the respective (radio)ligand amounts injected: i. 78–91 kBq [^67Ga]Ga-DT14D corresponding to 7–17 pmol DT14D at 1 and 4 h pi plus 4 h block (coinjection with 100 µg NT); ii. 74–92 kBq [^111In]In-DT14D corresponding to 20–25 pmol at 4 h (controls), 4 h pi (Entresto®; animals receiving a slurry of 12 mg/200 µL Entresto® oral gavage 30 min in advance) and 4 h block (coinjection with 100 µg NT); 24 h pi (including both controls and Entresto® mice groups); and iii. 730 kBq [^177Lu]Lu-DT14D corresponding to 40 pmol DT14D at 4, 24, 48, and 72 h pi plus 4 h block (co-injection with 100 µg NT). The animals were euthanized at predetermined time intervals, dissected and blood samples, organs of interest, and tumors were collected, weighed, and counted in the gamma counter. Biodistribution data were calculated as percent of the injected activity per gram tissue (%IA/g) with the aid of suitable standards of the administered activity. Results as the mean %IA/g values ± sd were obtained and statistical analysis was performed with PRISM^TM GraphPad—10.2 Software (San Diego, CA/USA), applying 2-way ANOVA with Tukey’s post hoc analysis, or, in the case of two variables, Šídák’s multiple comparisons test was adopted; differences with p < 0.05 were considered as statistically significant.

[1] = 730 kBq, Biodistribution, AsPC-1 Tumor
[2] = 730 kBq, Biodistribution, Blood
[3] = 730 kBq, Biodistribution, Femur
[4] = 730 kBq, Biodistribution, Heart
[5] = 730 kBq, Biodistribution, Intestines
[6] = 730 kBq, Biodistribution, Kidneys
[7] = 730 kBq, Biodistribution, Liver
[8] = 730 kBq, Biodistribution, Lungs
[9] = 730 kBq, Biodistribution, Muscle
[10] = 730 kBq, Biodistribution, Pancreas
[11] = 730 kBq, Biodistribution, Spleen
[12] = 730 kBq, Biodistribution, Stomach
[13] = 730 kBq, Tumor/Intestines ratio

## CC[C@H](C)[C@H](NC(=O)[C@H](Cc1ccc(O)cc1)NC(=O)[C@@H]1CCCN1C(=O)[C@H](CCCNC(=N)N)NC(=O)[C@H](CCCNC(=N)N)NC(=O)[C@H](CCCCNC(=O)COCCOCCOCCOCCNC(=O)CCCc1ccc(C)cc1)NC(=O)CCNC(=O)CCNC(=O)CCNC(=O)CN1CCN(CC(=O)O)CCN(CC(=O)O)CCN(CC(=O)O)CC1)C(=O)N[C@@H](CC(C)C)C(=O)O [[^67Ga]Ga-DT14D, metal not drawn] ({DOTA-βAla-βAla-βAla}-K(X1)RRPYIL-OH)
Biodistribution, AsPC-1 Tumor
  tissue uptake at 1 h: 11.4 ± 1.25 %ID/g
Biodistribution, Blood
  tissue uptake at 1 h: 9.52 ± 0.76 %ID/g
Biodistribution, Femur
  tissue uptake at 1 h: 2.24 ± 0.23 %ID/g
Biodistribution, Heart
  tissue uptake at 1 h: 2.86 ± 0.16 %ID/g
Biodistribution, Intestines
  tissue uptake at 1 h: 2.81 ± 0.53 %ID/g
Biodistribution, Kidneys
  tissue uptake at 1 h: 7.1 ± 1.12 %ID/g
Biodistribution, Liver
  tissue uptake at 1 h: 3.74 ± 0.37 %ID/g
Biodistribution, Lungs
  tissue uptake at 1 h: 4.31 ± 0.28 %ID/g
Biodistribution, Muscle
  tissue uptake at 1 h: 1.14 ± 0.15 %ID/g
Biodistribution, Pancreas
  tissue uptake at 1 h: 1.41 ± 0.12 %ID/g
Biodistribution, Spleen
  tissue uptake at 1 h: 2.86 ± 0.33 %ID/g
Biodistribution, Stomach
  tissue uptake at 1 h: 0.97 ± 0.27 %ID/g
  tissue uptake at 4 h: 0.45 ± 0.08 %ID/g
Tumor/Blood ratio
  tissue to tissue ratio at 1 h: 1.2 ± 0.06
Tumor/Heart ratio
  tissue to tissue ratio at 1 h: 3.99 ± 0.24
Tumor/Intestines ratio
  tissue to tissue ratio at 1 h: 4.12 ± 0.52
Tumor/Kidneys ratio
  tissue to tissue ratio at 1 h: 1.62 ± 0.13
  tissue to tissue ratio at 4 h: 1.15 ± 0.12
Tumor/Liver ratio
  tissue to tissue ratio at 1 h: 3.05 ± 0.19
Tumor/Lungs ratio
  tissue to tissue ratio at 1 h: 2.64 ± 0.15
  tissue to tissue ratio at 4 h: 3.28 ± 0.21
Tumor/Muscle ratio
  tissue to tissue ratio at 1 h: 10.1 ± 1.09
Tumor/Pancreas ratio
  tissue to tissue ratio at 1 h: 8.09 ± 0.24
Tumor/Spleen ratio
  tissue to tissue ratio at 1 h: 4 ± 0.08
Tumor/Stomach ratio
  tissue to tissue ratio at 1 h: 12.2 ± 2.71
  tissue to tissue ratio at 4 h: 9.96 ± 1.68

## CC[C@H](C)[C@H](NC(=O)[C@H](Cc1ccc(O)cc1)NC(=O)[C@@H]1CCCN1C(=O)[C@H](CCCNC(=N)N)NC(=O)[C@H](CCCNC(=N)N)NC(=O)[C@H](CCCCNC(=O)COCCOCCOCCOCCNC(=O)CCCc1ccc(C)cc1)NC(=O)CCNC(=O)CCNC(=O)CCNC(=O)CN1CCN(CC(=O)O)CCN(CC(=O)O)CCN(CC(=O)O)CC1)C(=O)N[C@@H](CC(C)C)C(=O)O [[^111In]In-DT14D, metal not drawn] ({DOTA-βAla-βAla-βAla}-K(X1)RRPYIL-OH)
Biodistribution, AsPC-1 Tumor
  tissue uptake at 24 h: 2.82 ± 0.68 %ID/g
Biodistribution, Kidneys
  tissue uptake at 24 h: 1.7 ± 0.13 %ID/g
Tumor/Intestines ratio
  tissue to tissue ratio at 24 h: 4.07 ± 0.42
Tumor/Kidneys ratio
  tissue to tissue ratio at 24 h: 1.66 ± 0.4
Tumor/Spleen ratio
  tissue to tissue ratio at 24 h: 1.77 ± 0.32

## CC[C@H](C)[C@H](NC(=O)[C@H](Cc1ccc(O)cc1)NC(=O)[C@@H]1CCCN1C(=O)[C@H](CCCNC(=N)N)NC(=O)[C@H](CCCNC(=N)N)NC(=O)[C@H](CCCCNC(=O)COCCOCCOCCOCCNC(=O)CCCc1ccc(C)cc1)NC(=O)CCNC(=O)CCNC(=O)CCNC(=O)CN1CCN(CC(=O)O)CCN(CC(=O)O)CCN(CC(=O)O)CC1)C(=O)N[C@@H](CC(C)C)C(=O)O [[^177Lu]Lu-DT14D, metal not drawn] ({DOTA-βAla-βAla-βAla}-K(X1)RRPYIL-OH)
40 pmol, Tumor/Blood ratio
  tissue to tissue ratio at 72 h: 29.8 ± 7.43
40 pmol, Tumor/Liver ratio
  tissue to tissue ratio at 48 h: 1.63 ± 0.14
  tissue to tissue ratio at 72 h: 1.44 ± 0.19
40 pmol, Tumor/Lungs ratio
  tissue to tissue ratio at 48 h: 11.4 ± 1
  tissue to tissue ratio at 72 h: 9.66 ± 1.43
40 pmol, Tumor/Pancreas ratio
  tissue to tissue ratio at 48 h: 20.4 ± 1.96
  tissue to tissue ratio at 72 h: 16.2 ± 5.04
[1]
  tissue uptake at 48 h: 1.56 ± 0.17 %ID/g
  tissue uptake at 72 h: 1.24 ± 0.2 %ID/g
[2]
  tissue uptake at 48 h: 0.05 ± 0.01 %ID/g
  tissue uptake at 72 h: 0.04 %ID/g
[3]
  tissue uptake at 48 h: 0.38 ± 0.03 %ID/g
  tissue uptake at 72 h: 0.35 ± 0.03 %ID/g
[4]
  tissue uptake at 48 h: 0.07 ± 0.01 %ID/g
  tissue uptake at 72 h: 0.06 ± 0.01 %ID/g
[5]
  tissue uptake at 48 h: 0.36 ± 0.01 %ID/g
  tissue uptake at 72 h: 0.27 ± 0.02 %ID/g
[6]
  tissue uptake at 48 h: 0.88 ± 0.06 %ID/g
  tissue uptake at 72 h: 0.57 ± 0.15 %ID/g
[7]
  tissue uptake at 48 h: 0.96 ± 0.05 %ID/g
  tissue uptake at 72 h: 0.86 ± 0.1 %ID/g
[8]
  tissue uptake at 48 h: 0.14 %ID/g
  tissue uptake at 72 h: 0.13 ± 0.04 %ID/g
[9]
  tissue uptake at 48 h: 0.04 ± 0.01 %ID/g
  tissue uptake at 72 h: 0.04 ± 0.02 %ID/g
[10]
  tissue uptake at 48 h: 0.07 ± 0.01 %ID/g
  tissue uptake at 72 h: 0.08 ± 0.02 %ID/g
[11]
  tissue uptake at 48 h: 1.6 ± 0.58 %ID/g
  tissue uptake at 72 h: 1.49 ± 0.51 %ID/g
[12]
  tissue uptake at 48 h: 0.07 ± 0.01 %ID/g
  tissue uptake at 72 h: 0.04 ± 0.01 %ID/g
730 kBq, Tumor/Blood ratio
  tissue to tissue ratio at 48 h: 30.9 ± 3.67
730 kBq, Tumor/Heart ratio
  tissue to tissue ratio at 48 h: 23 ± 2.32
  tissue to tissue ratio at 72 h: 20.1 ± 3.03
[13]
  tissue to tissue ratio at 48 h: 4.28 ± 0.33
  tissue to tissue ratio at 72 h: 4.65 ± 0.91
730 kBq, Tumor/Kidneys ratio
  tissue to tissue ratio at 48 h: 1.78 ± 0.3
  tissue to tissue ratio at 72 h: 2.26 ± 0.49
730 kBq, Tumor/Muscle ratio
  tissue to tissue ratio at 48 h: 39.2 ± 5.49
  tissue to tissue ratio at 72 h: 36.1 ± 14.6
730 kBq, Tumor/Spleen ratio
  tissue to tissue ratio at 48 h: 1.1 ± 0.51
  tissue to tissue ratio at 72 h: 0.89 ± 0.25
730 kBq, Tumor/Stomach ratio
  tissue to tissue ratio at 48 h: 23.8 ± 2.17
  tissue to tissue ratio at 72 h: 26.6 ± 5.58

— paper PMC11944670, “Reshaping [^99mTc]Tc-DT11 to DT14D Tagged with Trivalent Radiometals for NTS1R-Positive Cancer Theranostics” (Pharmaceutics, 2025)
